Assay results as given in the NIST ThermoML archive (doi:10.1016/j.jct.2012.06.012).

Assay: xn = mol fraction of the nth substance listed
Conditions: Liquid, Vibrating tube method

CCCCCCCCCC [decane] + CCO
Conditions | mass density [kg/m3]
352.7 K, 1000 kPa, x2 = 0.1011 | 683.33
352.7 K, 2000 kPa, x2 = 0.1011 | 684.45
352.7 K, 3000 kPa, x2 = 0.1011 | 685.55
352.7 K, 4000 kPa, x2 = 0.1011 | 686.65
352.7 K, 5000 kPa, x2 = 0.1011 | 687.72
352.7 K, 6000 kPa, x2 = 0.1011 | 688.78
352.7 K, 7000 kPa, x2 = 0.1011 | 689.84
352.7 K, 8000 kPa, x2 = 0.1011 | 690.9
352.7 K, 9000 kPa, x2 = 0.1011 | 691.94
352.7 K, 10000 kPa, x2 = 0.1011 | 692.96
352.7 K, 11000 kPa, x2 = 0.1011 | 693.98
352.7 K, 12000 kPa, x2 = 0.1011 | 695
352.7 K, 13000 kPa, x2 = 0.1011 | 695.99
352.7 K, 14000 kPa, x2 = 0.1011 | 696.97
352.7 K, 15000 kPa, x2 = 0.1011 | 697.93
352.7 K, 16000 kPa, x2 = 0.1011 | 698.88
352.7 K, 17000 kPa, x2 = 0.1011 | 699.83
352.7 K, 18000 kPa, x2 = 0.1011 | 700.74
352.7 K, 19000 kPa, x2 = 0.1011 | 701.63
352.7 K, 20000 kPa, x2 = 0.1011 | 702.51
352.76 K, 1000 kPa, x2 = 0.7526 | 702.43
352.76 K, 2000 kPa, x2 = 0.7526 | 703.63
352.76 K, 3000 kPa, x2 = 0.7526 | 704.82
352.76 K, 4000 kPa, x2 = 0.7526 | 706.01
352.76 K, 5000 kPa, x2 = 0.7526 | 707.19
352.76 K, 6000 kPa, x2 = 0.7526 | 708.35
352.76 K, 7000 kPa, x2 = 0.7526 | 709.51
352.76 K, 8000 kPa, x2 = 0.7526 | 710.66
352.76 K, 9000 kPa, x2 = 0.7526 | 711.8
352.76 K, 10000 kPa, x2 = 0.7526 | 712.92
352.76 K, 11000 kPa, x2 = 0.7526 | 714.03
352.76 K, 12000 kPa, x2 = 0.7526 | 715.12
352.76 K, 13000 kPa, x2 = 0.7526 | 716.21
352.76 K, 14000 kPa, x2 = 0.7526 | 717.27
352.76 K, 15000 kPa, x2 = 0.7526 | 718.31
352.76 K, 16000 kPa, x2 = 0.7526 | 719.35
352.76 K, 17000 kPa, x2 = 0.7526 | 720.36
352.76 K, 18000 kPa, x2 = 0.7526 | 721.35
352.76 K, 19000 kPa, x2 = 0.7526 | 722.32
352.76 K, 20000 kPa, x2 = 0.7526 | 723.29
352.85 K, 1000 kPa, x2 = 0.2507 | 684.78
352.85 K, 2000 kPa, x2 = 0.2507 | 685.92
352.85 K, 3000 kPa, x2 = 0.2507 | 687.03
352.85 K, 4000 kPa, x2 = 0.2507 | 688.14
352.85 K, 5000 kPa, x2 = 0.2507 | 689.24
352.85 K, 6000 kPa, x2 = 0.2507 | 690.33
352.85 K, 7000 kPa, x2 = 0.2507 | 691.41
352.85 K, 8000 kPa, x2 = 0.2507 | 692.48
352.85 K, 9000 kPa, x2 = 0.2507 | 693.55
352.85 K, 10000 kPa, x2 = 0.2507 | 694.61
352.85 K, 11000 kPa, x2 = 0.2507 | 695.65
352.85 K, 12000 kPa, x2 = 0.2507 | 696.68
352.85 K, 13000 kPa, x2 = 0.2507 | 697.7
352.85 K, 14000 kPa, x2 = 0.2507 | 698.7
352.85 K, 15000 kPa, x2 = 0.2507 | 699.68
352.85 K, 16000 kPa, x2 = 0.2507 | 700.65
352.85 K, 17000 kPa, x2 = 0.2507 | 701.61
352.85 K, 18000 kPa, x2 = 0.2507 | 702.54
352.85 K, 19000 kPa, x2 = 0.2507 | 703.46
352.85 K, 20000 kPa, x2 = 0.2507 | 704.34
362.64 K, 1000 kPa, x2 = 0.1011 | 675.19
362.64 K, 1000 kPa, x2 = 0.4963 | 680.64
362.64 K, 1000 kPa, x2 = 0.9014 | 707.28
362.64 K, 2000 kPa, x2 = 0.1011 | 676.37
362.64 K, 2000 kPa, x2 = 0.4963 | 681.93
362.64 K, 2000 kPa, x2 = 0.9014 | 708.6
362.64 K, 3000 kPa, x2 = 0.1011 | 677.53
362.64 K, 3000 kPa, x2 = 0.4963 | 683.18
362.64 K, 3000 kPa, x2 = 0.9014 | 709.92
362.64 K, 4000 kPa, x2 = 0.1011 | 678.69
362.64 K, 4000 kPa, x2 = 0.4963 | 684.42
362.64 K, 4000 kPa, x2 = 0.9014 | 711.21
362.64 K, 5000 kPa, x2 = 0.1011 | 679.84
362.64 K, 5000 kPa, x2 = 0.4963 | 685.66
362.64 K, 5000 kPa, x2 = 0.9014 | 712.52
362.64 K, 6000 kPa, x2 = 0.1011 | 680.98
362.64 K, 6000 kPa, x2 = 0.4963 | 686.87
362.64 K, 6000 kPa, x2 = 0.9014 | 713.8
362.64 K, 7000 kPa, x2 = 0.1011 | 682.11
362.64 K, 7000 kPa, x2 = 0.4963 | 688.09
362.64 K, 7000 kPa, x2 = 0.9014 | 715.07
362.64 K, 8000 kPa, x2 = 0.1011 | 683.24
362.64 K, 8000 kPa, x2 = 0.4963 | 689.28
362.64 K, 8000 kPa, x2 = 0.9014 | 716.3
362.64 K, 9000 kPa, x2 = 0.1011 | 684.33
362.64 K, 9000 kPa, x2 = 0.4963 | 690.44
362.64 K, 9000 kPa, x2 = 0.9014 | 717.55
362.64 K, 10000 kPa, x2 = 0.1011 | 685.43
362.64 K, 10000 kPa, x2 = 0.4963 | 691.61
362.64 K, 10000 kPa, x2 = 0.9014 | 718.74
